The record followed here is patent US6852888B2, “Carboxylic acid derivatives” (Syngenta Crop Protection, Inc., priority 1998, dated 2005).

Bounds are passed on as bounds.

For one series, the system named is Aphis craccivora. Nature of the series: Action against Aphis craccivora. Particulars: 400 ppm spray on infested pea seedlings, 20° C., evaluated 3 and 6 days later, read-out: percentage reduction in population (% activity). The series is classed as in vivo. The procedure:
Action against Aphis craccivora
Pea seedlings are infested with Aphis craccivora, subsequently sprayed with a spray mixture comprising 400 ppm of the test compound and incubated at 20° C. The evaluation is carried out 3 and 6 days later. The percentage reduction in population (% activity) is determined by comparing the number of dead aphids on the treated plants with that on the untreated plants.

Another series relates to Myzus persicae. Nature of the series: Systemic action against Myzus persicae. In kind it is in vivo. Particulars: pea seedlings with roots in spray mixture of 400 ppm, 20° C., evaluated 3 and 6 days later. On the procedure: Systemic Action against Myzus persicae
Pea seedlings are infested with Myzus persicae, and then placed with their roots in a spray mixture comprising 400 ppm of the test compound and incubated at 20° C. The evaluation is carried out 3 and 6 days later. The percentage reduction in population (% activity) is determined by comparing the number of dead aphids on the treated plants with that on the untreated plants.

In the next series the test system is Tetranychus urticae. Briefly: Action against Tetranychus urticae. In kind it is in vivo. Conditions: 400 ppm spray on young bean plants, mixed population, 6 days at 25° C. On the procedure: Action against Tetranychus urticae
Young bean plants are populated with a mixed population of Tetranychus urticae and sprayed one day later with an aqueous emulsion spray mixture comprising 400 ppm of the test compound. The plants are then incubated for 6 days at 25° C. and subsequently evaluated. The percentage reduction in population (% activity) is determined by comparing the number of dead eggs, larvae and adults on the treated plants with that on the untreated plants.

On to `Cc1cc(OC(F)(F)C(F)Cl)ccc1NC(=O)CCCC=C(F)F` (stereo not shown) [Compound 1.1, 6,6-Difluorohex-5-enoic acid [4-(2-chloro-1,1,2-trifluoroethoxy)-2-methylphenyl]amide], for which the melting point (in general, the temperature, or range, at which the solid turns liquid) lay in the range of 59 to 60 °C. Besides, the inhibition at 400 ppm in the series on Aphis craccivora is more than 80%.
Regarding `O=C(CCCC=C(F)F)Nc1ccc(OC(F)(F)C(F)F)cc1` [Compound 1.3], the “percentage reduction in population (% activity)” value with Myzus persicae is reported as “more than 80%”.
On to `O=C(CCCC=C(F)F)Nc1cccc(OC(F)(F)C(F)F)c1` [Compound 1.17], for which the “percentage reduction in population (% activity)” value in the series with Tetranychus urticae is “more than 80%”.
